In patent US20090232942A1, “Yeast Preparations With Improved Antioxidant Properties and Uses Thereof” (priority 2005, published 2009):
Values after ≈ are worked out from the molar mass of the structure shown.

How the values were obtained:
Type in all cases: biochemical
[1] = Reduction of the DPPH radical, inhibition of absorbance at 523 nm (UV-visible); conditions: for IC50 Mean: n = 3
Excerpt: DPPH. has an intense violet color and this compound remains stable, in the solid form, for years. An antioxidant, proton donor, is capable of reducing this radical (DPPH.→DPPH2), which leads to a decrease in its absorbance. The antioxidant capacity of the compounds is thus determined by evaluating the percentage of inhibition of the absorbance of DPPH. at 523 nm. […] The DPPH. sold by Aldrich and the vitamin C sold by Merck were used. In these tests, the selenium and glutathione concentrations were such that the solution of E2 contained as much selenium and glutathione as that of E1. The method used made it possible to evaluate the overall antioxidant power of the mixture and to compare it to that of reference substances under the same experimental conditions. The antioxidant activity was evaluated by measuring the capacity of the extract to trap the […].

LDL/VLDL [2] = assay: LAG-TIME method: Cu2+-induced oxidation of LDL/VLDL, absorbance at 234 nm, unbound samples; conditions: 1 μM of sample; for Lag Time: 70 μg/ml LDL/VLDL, 25 μM Cu2+, 234 nm; for Increase of Lag Time 1 (%): relative to control (LDL alone)
Method: It makes it possible to measure the time required for the added antioxidants to oxidize. […] The effect of the antioxidant present is all the stronger when the lag time is long (in seconds). The kinetic analysis was carried out at 234 nm. The various samples were brought to the same concentration of 1 μm.
The mixture was subjected to Vortex stirring for 5 minutes, then to centrifugation for 10 minutes. […] of supernatant was recovered. This product was ready to use. (sample No. 7 was ground into a fine powder before being mixed with water).
The procedure described in the publication J. Agric. […] This experiment thus made it possible to measure the capacity of the antioxidant tested to inhibit oxidation.
The LDL/VLDL preparation and the various samples were diluted in PBS in order to obtain the desired concentration (70 μg/ml of LDL/VLDL). The control batch contained only the 70 μg/ml LDL/VLDL preparation and PBS. The absorbance of the PBS, the control batch and the other samples was carried out at a wavelength of 234 nm over 10 min on a Genesys 5 machine. Next, 25 μM of Cu^2+ (final concentration in the solution) were added and mixed and the absorbance measurement was carried out every 5 minutes for 6 to 8 hours.

LDL/VLDL [3] = assay: Bound LAG TIME: samples incubated 2 hours with LDL/VLDL before Cu2+-induced oxidation; conditions: 1 μM of sample; for Lag Time: bound (2 hours incubation with LDL/VLDL at ambient temperature), 25 μM Cu2+; for Increase of Lag Time 1 (%) / Increase of Lag Time 2 (%): bound; for Increase of Lag Time 1 (%): relative to control (LDL alone); for Increase of Lag Time 2 (%): relative to the unbound sample
Method: The LDLs and the various antioxidants were inoculated so that bonds were created. This phenomenon is supposed to represent what happens in the plasma when an antioxidant having the ability to bind is absorbed.
The various samples and the LDL/VLDL preparation were diluted to 1 μM and 70 μg/ml respectively in PBS, then incubated at ambient temperature for 2 hours. Next, 25 μM of Cu^2+ (final concentration in the solution) were added and mixed and the absorbance measurement was carried out every 5 minutes for 6 to 8 hours. The absorbance of the samples was measured at a wavelength of 234 nm over 10 min on a Genesys 5 machine. The tocopherol was used as a positive control given that it is known for binding to the LDL which is generally a tocopherol carrier in plasma.

O=C1O[C@H]([C@@H](O)CO)C(O)=C1O [Vitamin C, vitamin C]
IC50 Mean ([1]; Time 10 min): 5.24 µg/mL (≈ 29.8 µM)
IC50 Mean ([1]; Time 20 min): 5.20 µg/mL (≈ 29.5 µM)
IC50 Mean ([1]; Time 30 min): 5.16 µg/mL (≈ 29.3 µM)

N[C@@H](CCC(=O)N[C@@H](CS)C(=O)NCC(=O)O)C(=O)O [Glutathione]
IC50 times higher than that for vitamin C ([1]; 30 min value): 40 times
IC50 Mean ([1]; Time 10 min): 292.97 µg/mL (≈ 953 µM)
IC50 Mean ([1]; Time 20 min): 233.84 µg/mL (≈ 761 µM)
IC50 Mean ([1]; Time 30 min): 202.13 µg/mL (≈ 658 µM)

C[Se]CC[C@H](N)C(=O)O [selenomethionine]
inhibition of LDL oxidation in comparison to the control (in words) (LDL/VLDL [2]): did not show signs of inhibition
Lag Time (LDL/VLDL [2]): 2805 s
Increase of Lag Time 1 (%) (LDL/VLDL [2]): −8%
Lag Time (LDL/VLDL [3]): 6267 s
Increase of Lag Time 1 (%) (LDL/VLDL [3]): 106%
Increase of Lag Time 2 (%) (LDL/VLDL [3]): 123%

tocopherol
inhibition of LDL oxidation in comparison to the control (in words) (LDL/VLDL [2]): high levels of inhibition
Lag Time (LDL/VLDL [2]): 7285 s
Increase of Lag Time 1 (%) (LDL/VLDL [2]): 140%
Lag Time (LDL/VLDL [3]): 20940 s
Increase of Lag Time 1 (%) (LDL/VLDL [3]): 590%
Increase of Lag Time 2 (%) (LDL/VLDL [3]): 187%
